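In this assay, cells in 96-well plates receive the compound at five concentrations for 48 hours. Endpoints are linearly interpolated between the surrounding concentrations. Definition used: TGI = concentration required for complete inhibition of growth.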
Assays:
Experiment in all cases: inhibition of tumour cell growth, NCI panel, 48 h
SNB-19 CNS = tested on: SNB-19 CNS
SNB-75 CNS = tested on: SNB-75 CNS
HS 578T breast = tested on: HS 578T breast
SF-539 CNS = tested on: SF-539 CNS
HL-60(TB) leukemia = tested on: HL-60(TB) leukemia
MCF7 breast = tested on: MCF7 breast
786-0 renal = tested on: 786-0 renal
U251 CNS = tested on: U251 CNS
K-562 leukemia = tested on: K-562 leukemia
NCI-H522 lung = tested on: NCI-H522 lung
HT29 colon = tested on: HT29 colon
A498 renal = tested on: A498 renal
OVCAR-4 ovarian = tested on: OVCAR-4 ovarian
RXF 393 renal = tested on: RXF 393 renal
OVCAR-8 ovarian = tested on: OVCAR-8 ovarian
NCI-H23 lung = tested on: NCI-H23 lung
TK-10 renal = tested on: TK-10 renal
HCT-116 colon = tested on: HCT-116 colon
M14 melanoma = tested on: M14 melanoma
HCT-15 colon = tested on: HCT-15 colon
SK-MEL-2 melanoma = tested on: SK-MEL-2 melanoma
UACC-257 melanoma = tested on: UACC-257 melanoma
NCI-H226 lung = tested on: NCI-H226 lung
A549 NSCLC = tested on: A549 NSCLC
MDA-MB-231 breast = tested on: MDA-MB-231 breast
KM12 colon = tested on: KM12 colon
MDA-N = tested on: MDA-N
DU-145 prostate = tested on: DU-145 prostate
SF-295 CNS = tested on: SF-295 CNS
IGROV1 ovarian = tested on: IGROV1 ovarian
RPMI-8226 leukemia = tested on: RPMI-8226 leukemia
LOX IMVI melanoma = tested on: LOX IMVI melanoma
BT-549 breast = tested on: BT-549 breast
MALME-3M melanoma = tested on: MALME-3M melanoma
MDA-MB-435 = tested on: MDA-MB-435
PC-3 prostate = tested on: PC-3 prostate
CCRF-CEM leukemia = tested on: CCRF-CEM leukemia
HOP-92 NSCLC = tested on: HOP-92 NSCLC
ACHN renal = tested on: ACHN renal
COLO 205 colon = tested on: COLO 205 colon
T-47D breast = tested on: T-47D breast
EKVX NSCLC = tested on: EKVX NSCLC
OVCAR-3 ovarian = tested on: OVCAR-3 ovarian
CAKI-1 renal = tested on: CAKI-1 renal
SK-MEL-5 melanoma = tested on: SK-MEL-5 melanoma
UACC-62 melanoma = tested on: UACC-62 melanoma
UO-31 renal = tested on: UO-31 renal
MOLT-4 leukemia = tested on: MOLT-4 leukemia
SR leukemia = tested on: SR leukemia
SW-620 colon = tested on: SW-620 colon
SK-MEL-28 melanoma = tested on: SK-MEL-28 melanoma
NCI-H460 lung = tested on: NCI-H460 lung
SK-OV-3 ovarian = tested on: SK-OV-3 ovarian
NCI/ADR-RES ovarian = tested on: NCI/ADR-RES ovarian
OVCAR-5 ovarian = tested on: OVCAR-5 ovarian
M19-MEL melanoma = tested on: M19-MEL melanoma
DLD-1 colon = tested on: DLD-1 colon
LXFL 529 NSCLC = tested on: LXFL 529 NSCLC
HOP-18 NSCLC = tested on: HOP-18 NSCLC
SN12C renal = tested on: SN12C renal
HCC-2998 colon = tested on: HCC-2998 colon
SF-268 CNS = tested on: SF-268 CNS
HOP-62 NSCLC = tested on: HOP-62 NSCLC

SMILES: CN(C)NC(=S)Nc1ccccc1Br
- TGI (SNB-19 CNS): > 100 µM
- TGI (SNB-75 CNS): > 100 µM
- TGI (HS 578T breast): > 100 µM
- TGI (SF-539 CNS): > 100 µM
- TGI (HL-60(TB) leukemia): > 100 µM
- TGI (MCF7 breast): > 100 µM
- TGI (786-0 renal): > 100 µM
- TGI (U251 CNS): > 100 µM
- TGI (K-562 leukemia): > 100 µM
- TGI (NCI-H522 lung): > 100 µM
- TGI (HT29 colon): > 100 µM
- TGI (A498 renal): > 100 µM
- TGI (OVCAR-4 ovarian): > 100 µM
- TGI (RXF 393 renal): > 100 µM
- TGI (OVCAR-8 ovarian): > 100 µM
- TGI (NCI-H23 lung): > 100 µM
- TGI (TK-10 renal): > 100 µM
- TGI (HCT-116 colon): > 100 µM
- TGI (M14 melanoma): > 100 µM
- TGI (HCT-15 colon): > 100 µM
- TGI (SK-MEL-2 melanoma): > 100 µM
- TGI (UACC-257 melanoma): > 100 µM
- TGI (NCI-H226 lung): > 100 µM
- TGI (A549 NSCLC): > 100 µM
- TGI (MDA-MB-231 breast): > 100 µM
- TGI (KM12 colon): > 100 µM
- TGI (MDA-N): > 100 µM
- TGI (DU-145 prostate): > 100 µM
- TGI (SF-295 CNS): > 100 µM
- TGI (IGROV1 ovarian): > 100 µM
- TGI (RPMI-8226 leukemia): > 100 µM
- TGI (LOX IMVI melanoma): > 100 µM
- TGI (BT-549 breast): > 100 µM
- TGI (MALME-3M melanoma): > 100 µM
- TGI (MDA-MB-435): > 100 µM
- TGI (PC-3 prostate): > 100 µM
- TGI (CCRF-CEM leukemia): > 100 µM
- TGI (HOP-92 NSCLC): > 100 µM
- TGI (ACHN renal): > 100 µM
- TGI (COLO 205 colon): > 100 µM
- TGI (T-47D breast): > 100 µM
- TGI (EKVX NSCLC): > 100 µM
- TGI (OVCAR-3 ovarian): > 100 µM
- TGI (CAKI-1 renal): > 100 µM
- TGI (SK-MEL-5 melanoma): > 100 µM
- TGI (UACC-62 melanoma): > 100 µM
- TGI (UO-31 renal): > 100 µM
- TGI (MOLT-4 leukemia): > 100 µM
- TGI (SR leukemia): > 100 µM
- TGI (SW-620 colon): > 100 µM
- TGI (SK-MEL-28 melanoma): > 100 µM
- TGI (NCI-H460 lung): > 100 µM
- TGI (SK-OV-3 ovarian): > 100 µM
- TGI (NCI/ADR-RES ovarian): > 100 µM
- TGI (OVCAR-5 ovarian): > 100 µM

SMILES: CCC(=O)OC[n+]1ccc2c(C)c3[nH]c4ccc(OC)cc4c3c(C)c2c1
- TGI (HL-60(TB) leukemia): 8.38 µM
- TGI (786-0 renal): 1.73 µM
- TGI (K-562 leukemia): 23.9 µM
- TGI (HT29 colon): 1.57 µM
- TGI (TK-10 renal): 2.92 µM
- TGI (HCT-116 colon): 1.13 µM
- TGI (M19-MEL melanoma): 1.68 µM
- TGI (IGROV1 ovarian): 1.03 µM
- TGI (RPMI-8226 leukemia): 2.54 µM
- TGI (DLD-1 colon): 1.26 µM
- TGI (MALME-3M melanoma): 2.71 µM
- TGI (CCRF-CEM leukemia): > 100 µM
- TGI (LXFL 529 NSCLC): 1.57 µM
- TGI (ACHN renal): 3.76 µM
- TGI (HOP-18 NSCLC): 0.131 µM
- TGI (OVCAR-5 ovarian): 1.75 µM

SMILES: CC(=O)OC[C@]1(C(=O)C(O)c2ccoc2)[C@H](C)CC[C@@]23COC(=O)C2=CCC[C@@H]31 (stereo partly specified)
- TGI (SNB-19 CNS): > 10 µM
- TGI (SN12C renal): > 10 µM
- TGI (SNB-75 CNS): > 10 µM
- TGI (HS 578T breast): > 10 µM
- TGI (SF-539 CNS): > 10 µM
- TGI (HL-60(TB) leukemia): > 10 µM
- TGI (MCF7 breast): > 10 µM
- TGI (786-0 renal): > 10 µM
- TGI (U251 CNS): > 10 µM
- TGI (NCI-H522 lung): > 10 µM
- TGI (HT29 colon): > 10 µM
- TGI (A498 renal): > 10 µM
- TGI (OVCAR-4 ovarian): > 10 µM
- TGI (RXF 393 renal): > 10 µM
- TGI (OVCAR-8 ovarian): > 10 µM
- TGI (NCI-H23 lung): > 10 µM
- TGI (TK-10 renal): > 10 µM
- TGI (HCT-116 colon): > 10 µM
- TGI (M14 melanoma): > 10 µM
- TGI (HCT-15 colon): > 10 µM
- TGI (SK-MEL-2 melanoma): > 10 µM
- TGI (UACC-257 melanoma): > 10 µM
- TGI (NCI-H226 lung): > 10 µM
- TGI (A549 NSCLC): > 10 µM
- TGI (MDA-MB-231 breast): > 10 µM
- TGI (KM12 colon): > 10 µM
- TGI (MDA-N): > 10 µM
- TGI (DU-145 prostate): > 10 µM
- TGI (SF-295 CNS): > 10 µM
- TGI (IGROV1 ovarian): > 10 µM
- TGI (HCC-2998 colon): > 10 µM
- TGI (RPMI-8226 leukemia): > 10 µM
- TGI (LOX IMVI melanoma): > 10 µM
- TGI (BT-549 breast): > 10 µM
- TGI (MDA-MB-435): > 10 µM
- TGI (PC-3 prostate): > 10 µM
- TGI (SF-268 CNS): > 10 µM
- TGI (CCRF-CEM leukemia): > 10 µM
- TGI (HOP-92 NSCLC): > 10 µM
- TGI (ACHN renal): > 10 µM
- TGI (COLO 205 colon): > 10 µM
- TGI (T-47D breast): > 10 µM
- TGI (EKVX NSCLC): > 10 µM
- TGI (OVCAR-3 ovarian): > 10 µM
- TGI (CAKI-1 renal): > 10 µM
- TGI (SK-MEL-5 melanoma): > 10 µM
- TGI (UACC-62 melanoma): > 10 µM
- TGI (UO-31 renal): > 10 µM
- TGI (MOLT-4 leukemia): > 10 µM
- TGI (SR leukemia): > 10 µM
- TGI (SW-620 colon): > 10 µM
- TGI (NCI-H460 lung): > 10 µM
- TGI (SK-OV-3 ovarian): > 10 µM
- TGI (NCI/ADR-RES ovarian): > 10 µM
- TGI (OVCAR-5 ovarian): > 10 µM

SMILES: COc1ccc(N2C(=O)c3c4c(c5c([nH]c6ncccc65)c3C2=O)CCC(C(C)(C)C)C4)cc1 (stereo unspecified)
- TGI (SNB-19 CNS): > 100 µM
- TGI (SN12C renal): > 100 µM
- TGI (SNB-75 CNS): 32.8 µM
- TGI (HS 578T breast): 72.2 µM
- TGI (SF-539 CNS): > 100 µM
- TGI (HL-60(TB) leukemia): > 100 µM
- TGI (MCF7 breast): > 100 µM
- TGI (786-0 renal): > 100 µM
- TGI (U251 CNS): 98 µM
- TGI (NCI-H522 lung): > 100 µM
- TGI (HT29 colon): > 100 µM
- TGI (OVCAR-4 ovarian): > 100 µM
- TGI (RXF 393 renal): > 100 µM
- TGI (OVCAR-8 ovarian): > 100 µM
- TGI (NCI-H23 lung): > 100 µM
- TGI (TK-10 renal): > 100 µM
- TGI (HCT-116 colon): > 100 µM
- TGI (M14 melanoma): > 100 µM
- TGI (HCT-15 colon): > 100 µM
- TGI (HOP-62 NSCLC): > 100 µM
- TGI (UACC-257 melanoma): > 100 µM
- TGI (NCI-H226 lung): > 100 µM
- TGI (A549 NSCLC): > 100 µM
- TGI (MDA-MB-231 breast): > 100 µM
- TGI (KM12 colon): > 100 µM
- TGI (MDA-N): > 100 µM
- TGI (DU-145 prostate): > 100 µM
- TGI (SF-295 CNS): > 100 µM
- TGI (IGROV1 ovarian): > 100 µM
- TGI (HCC-2998 colon): > 100 µM
- TGI (RPMI-8226 leukemia): > 100 µM
- TGI (BT-549 breast): > 100 µM
- TGI (MDA-MB-435): > 100 µM
- TGI (PC-3 prostate): > 100 µM
- TGI (SF-268 CNS): > 100 µM
- TGI (CCRF-CEM leukemia): > 100 µM
- TGI (ACHN renal): > 100 µM
- TGI (COLO 205 colon): > 100 µM
- TGI (T-47D breast): > 100 µM
- TGI (EKVX NSCLC): > 100 µM
- TGI (OVCAR-3 ovarian): > 100 µM
- TGI (SK-MEL-5 melanoma): > 100 µM
- TGI (UACC-62 melanoma): > 100 µM
- TGI (UO-31 renal): > 100 µM
- TGI (SR leukemia): > 100 µM
- TGI (SW-620 colon): > 100 µM
- TGI (SK-MEL-28 melanoma): > 100 µM
- TGI (NCI-H460 lung): > 100 µM
- TGI (SK-OV-3 ovarian): > 100 µM
- TGI (NCI/ADR-RES ovarian): > 100 µM

From PubChem BioAssay (NCI)
